Data: US7354904B2, “Bacteriocin inducer peptides” (priority 2005, dated 2008)

Tests used:
Type in all cases: cell-based
S. enteritidis = assay: Spot Test, antagonistic activity of isolated signal peptides; conditions: isolated signal peptide
Protocol: (§1) The antagonistic activity of the bacteriocins produced when using the signal peptide and an inducer strain of bacteria against C. jejuni and S. enteritidis was assessed using a Spot Test. The steps included taking various concentrations of pure preparation (μg/ml) of the bacteriocin in approximately 10 microliters of volume plated onto blood-supplemented Campylobacter agar or Nutrient agar (MPA or Meta Peptone Agar) previously seeded with cells of target bacteria. Plates containing cultures of C. jejuni were grown at about 42° C., under microaerobic conditions. Plates containing S. enteritidis were grown at about 37° C. under aerobic conditions. Activity of the bacteriocin was expressed in arbitrary units (AU) per one milliliter of the preparation at which a visible zone of inhibition of the growth of culture appears (Henderson et al., Archives of Biochemistry and Biophysics, Volume 295, 5-12, 1992; herein incorporated by reference). Specific activity can also expressed as arbitrary units per milligram of pure bacteriocin.
Its activity was about 200 AU/ml and its molecular weight was about 2.5 kDa, as determined by SDS-PAGE electrophoresis. The isoelectric point (pI) was about 7.9 (FIGS. 1A and 1B).
Its molecular weight was about 3.1 kDa as measured by SDS-PAGE and the isoelectric point (pI) was about 8.1 (FIGS. 2A and 2B).
Its molecular weight was about 2.1 kDa as determined by SDS-PAGE electrophoresis and its isoelectric point was about 8.9 (FIGS. 3A and 3B).

[1] = tested on: Enterococcus faecium LWP 50-52; assay: Bacteriocin 50-52 production with signal peptide under scaled-up cultivation (bioreactor); conditions: LWP 50-52 + LWP-320, 0.22 mg peptide added after 2 hours of cultivation, about 12 hours
Protocol: as §1
Isolation of bacteriocin 50-52 involved two steps: (1) the isolation of bacteriocin from the supernatant of the culture fluid and (2) the isolation of bacteriocin from the precipitate of cells of both the inducing and the producing strains. In step 1, the cultures were harvested and separated by centrifugation at about 10,000×g for about 15 minutes to precipitate the cells. The supernatant was applied to an Octyl Sepharose 4 Fast Flow column to recover the bacteriocin using an elution buffer of about 20 mM K2HPO4 buffer, pH approximately 7.0. The cell precipitate from step 2 was suspended in phosphate buffer with about 0.7% NaCl, pH approximately 5.6 (elution buffer) and the suspension was mixed and incubated for about 20 minutes. After incubation, the suspension was centrifuged at about 10,000×g for about 15 minutes. The bacteriocin was isolated from the supernatant using ion-exchange chromatography on Superose SP Fast Flow using an elution buffer containing about 10 mM Tris HCl and about 125 mM NaCl, pH approximately 7.5. Antagonistic activities of the bacteriocin fractions against C. jejuni and S. enteritidis were assessed in a spot-test. The level of purity of bacteriocins was determined by SDS-PAGE. The isoelectric points of the fractions were determined using isoelectricfocusing. Concentrations of protein for all bacteriocin fractions were determined at approximately 215 nm using a spectrophotometric method.
To evaluate influence of the signal peptide on bacteriocin production under scaled-up cultivation, producing and inducing strains were grown in a V-6 liter bioreactor containing about 6 liters of medium. The ratio of concentrations of cultures and the signal peptide was maintained as in Table 5 for the conditions of 10% Brucella Broth, LWP 50-52, LWP 320, 0.01 mg/ml of LWP 50-52 signal peptide added after about 2 hours of cultivation. Isolation of bacteriocin 50-52 was performed at about 8, 10, 12, and 14 hours of cultivation as described above. The control contained 10% Brucella Broth, LWP 50-52, LWP-320, at a pH of approximately 6.9, at about 37° C., and about 150 rpm. The bacteriocin 50-52 was isolated after about 12 hours of cultivation. For the second condition, the conditions were the same except that approximately 0.22 mg of LWP 50-52 signal peptide was added after 2 hours of cultivation. Each condition was repeated three times.

[2] = tested on: Streptococcus cricetus LWP 760; assay: Influence of signal peptide on bacteriocin 760 production, flask culture (fraction protein at 215 nm, activity by Spot Test against C. jejuni and S. enteritidis)
[3] = LWP 760 + LWP 320, 0.1 mg LWP 50-52 peptide

Sequence: TNVTKSWWVLAGCNQVVASNCNCGNVKGLT (listed as Enterococcus faecium) [LWP 50-52 Signal Peptide, signal peptide isolated from Enterococcus faecium LWP 50-52, stimulates bacteriocin 50-52 production]
- antagonistic activity (S. enteritidis): did not possess antagonistic activity
- Activity [1]: 6,553,600 AU/ml
- Increase in the amount of protein vs. control [1]: 4
- Protein Concentration [1]: 2.4 mg/mL
- Specific Activity [1]: 2,730,665 AU/mg
- Amount of Protein/liter of medium ([1]; listed as LWP 50-52 signal Peptide): 360 mg
- Amount of Protein/liter of medium ([1]; listed as LWP 50-52 signal peptide): about 360 mg
- Activity [2, 3]: 1,638,840 AU/ml
- Increase in amount of protein vs. control [2, 3]: 1
- Protein Concentration [2, 3]: 0.30 mg/mL
- Protein Produced from 1 liter Culture Fluid [2, 3]: 99 mg
- Specific Activity [2, 3]: 5,462,666 Au/mg
- yield of bacteriocin 760 versus control ([2]; signal peptide of another strain added to LWP 760 + LWP 320): did not increase
